The values that follow come from US4263255A, “Assay method and compounds” (Burroughs Wellcome Co., priority 1979, dated 1981).

Experiment [1] concerns the target opiate receptor. As to the kind of experiment: Opiate receptor affinity by method of Pasternak et al. using tritiated naloxone, absence of sodium ions. It is filed as binding. Here is the method: *Method of Pasternak, G. W. et al., Molecular Pharmacology, 11, 340-351
(1975) using tritiated naloxone and in the absence of sodium ions; assays
performed at 4° C. in the presence of bacitracin (50 μg/ml) in
trishydrochloric acid buffer (50 mM, pH 7.4).
(§1) The opiate receptor IC50 (M) was ascertained by the method indicated in Example 1.
as §1

In experiment [2] the test system is opiate receptor. The experiment in a line: Specific binding affinity for the opiate receptor of the radio-iodinated peaks. As to conditions: first peak (monoiodinated) compared with second peak (diiodinated). How it is done:
The material comprising this peak was applied to a Sephadex 2-(diethylamino)ethyl ether column and eluted with sodium borate buffer (12.5 mM, pH 9.0, 0.1 N sodium chloride).

Where [3] appears, read: TABLE 2 (Example 3), method indicated in Example 1: tritiated naloxone.
Where [4] appears, read: table of Example 1, tritiated naloxone, 4° C., bacitracin 50 μg/ml, pH 7.4.
[5] abbreviates: TABLE 1 (Example 2), method indicated in Example 1: tritiated naloxone.

Counter-ions that a name gives are not always drawn. Where a SMILES comes first, the peptide text is derived from it. Where no end group is shown, it is not given here. [ ]: non-standard residue; d: D form.

`CCNC(=O)[C@@H](CC(C)C)NC(=O)[C@H](Cc1ccc(Cl)cc1)NC(=O)CNC(=O)[C@@H](C)NC(=O)[C@@H](N)Cc1ccc(O)cc1` [(A1), H . Tyr . D-Ala . Gly . Phe(4Cl) . D-Leu . NHEt HCl] yielded an IC50 in experiment [1] (setting [3]) of 80 nM. Turning to `CSCC[C@H](NC(=O)[C@H](Cc1ccccc1)NC(=O)CNC(=O)[C@@H](C)NC(=O)[C@@H](N)Cc1ccc(O)cc1)C(=O)O` [(B), H . Tyr . D-Ala . Gly . Phe . Met . OH HCl], the IC50 in experiment [1] (setting [4]) was 3.8 nM. In other words, the single-digit nanomolar range.

Compound `CC(C)C[C@@H](NC(=O)[C@H](Cc1ccccc1)NC(=O)CNC(=O)[C@@H](C)NC(=O)[C@@H](N)Cc1ccc(O)cc1)C(=O)O` [(C), H . Tyr . D-Ala . Gly . Phe . D-Leu . OH HCl] yielded an IC50 in experiment [1] (setting [4]) of […]. In experiment [1] (setting [5]), `COC(=O)[C@H](CCSC)NC(=O)[C@H](Cc1ccccc1)NC(=O)CNC(=O)[C@@H](C)NC(=O)[C@@H](N)Cc1ccc(O)cc1` [(D), H . Tyr . D-Ala . Gly . Phe . Met . OMe] returned a half-inhibitory concentration (IC50) of 5 nM.

For the compound `CSCC[C@H](NC(=O)[C@H](Cc1ccccc1)NC(=O)CNC(=O)[C@@H](C)NC(=O)[C@@H](N)Cc1ccc(O)cc1)C(=O)N[C@H](C(=O)O)[C@@H](C)O` [(E), H . Tyr . D-Ala . Gly . Phe . Met . Thr . OH HCl] (H-Y[dA]GFMT-OH), half-maximal inhibition in experiment [1] (setting [5]) (IC50) required 5.6 nM. Still for that read-out and setting: under `CC(C)C[C@H](NC(=O)[C@H](Cc1ccccc1)NC(=O)CNC(=O)[C@@H](C)NC(=O)[C@@H](N)Cc1ccc(O)cc1)C(=O)N[C@H](C(=O)O)[C@@H](C)O` [(G), H . Tyr . D-Ala . Gly . Phe . Leu . Thr . OH HCl] (H-Y[dA]GFLT-OH) stands 8 nM; under `CSCC[C@@H](NC(=O)[C@H](Cc1ccccc1)NC(=O)CNC(=O)[C@@H](C)NC(=O)[C@@H](N)Cc1ccc(O)cc1)C(=O)O` [(J), H . Tyr . D-Ala . Gly . Phe . D-Met . OH HCl], 8 nM; under `CC(C)C[C@@H](NC(=O)[C@H](Cc1ccc(Cl)cc1)NC(=O)CNC(=O)[C@@H](C)NC(=O)[C@@H](N)Cc1ccc(O)cc1)C(=O)O` [(K), H . Tyr . D-Ala . Gly . Phe (4Cl) . D-Leu . OH HCl], 1 nM. `COC(=O)[C@@H](CC(C)C)NC(=O)[C@H](Cc1ccc(Cl)cc1)NC(=O)CNC(=O)[C@@H](C)NC(=O)[C@@H](N)Cc1ccc(O)cc1` [(L), H . Tyr . D-Ala . Gly . Phe (4Cl) . D-Leu . OMe HCl] yielded a half-maximal inhibitory concentration (IC50) in experiment [1] (setting [5]) of 2 nM.

`CC(C)C[C@H](NC(=O)[C@H](Cc1ccccc1)NC(=O)[C@H](C)NC(=O)[C@@H](C)NC(=O)[C@@H](N)Cc1ccc(O)cc1)C(=O)O` [(N), H . Tyr . D-Ala . Ala . Phe . Leu . OH HCl] (H-Y[dA]AFL-OH) registered a concentration for half-maximal inhibition (IC50) in experiment [1] (setting [3]) of 80 nM. Still for that read-out and setting: under `CCCC[C@H](NC(=O)[C@H](Cc1ccccc1)NC(=O)CNC(=O)CNC(=O)[C@@H](N)Cc1ccc(O)cc1)C(=O)O` [(O), H . Tyr . Gly . Gly . Phe . Nle . OH HCl] stands 80 nM. In turn, `CC(C)C[C@@H](NC(=O)[C@H](Cc1ccccc1)NC(=O)CNC(=O)CNC(=O)[C@@H](N)Cc1ccc(O)cc1)C(=O)O` [(P), H . Tyr . Gly . Gly . Phe . D-Leu . OH HCl] yielded an IC50 in experiment [1] (setting [3]) of 25 nM. Compared with the last compound, the IC50 is about 3.2-fold lower. Same read-out and setting: with `C[C@@H](NC(=O)[C@@H](N)Cc1ccc(O)cc1)C(=O)NCC(=O)N[C@@H](Cc1ccccc1)C(=O)N[C@H](C(=O)O)[C@@H](C)O` [(Q), H . Tyr . D-Ala . Gly . Phe . Thr . OH HCl] (H-Y[dA]GFT-OH) the figure was 90 nM. Same read-out and setting: under `CC(C)C[C@@H](NC(=O)[C@H](Cc1ccccc1)NC(=O)CNC(=O)[C@@H](C)NC(=O)[C@@H](N)Cc1ccc(O)cc1)C(=O)N[C@H](C(=O)O)[C@@H](C)O` [(R), H . Tyr . D-Ala . Gly . Phe . D-Leu . Thr . OH HCl] (H-Y[dA]GF[dL]T-OH) stands 30 nM; under `CSCC[C@@H](NC(=O)[C@H](Cc1ccccc1)NC(=O)CNC(=O)[C@@H](C)NC(=O)[C@@H](N)Cc1ccc(O)cc1)C(=O)N[C@H](C(=O)O)[C@@H](C)O` [(S), H . Tyr . D-Ala . Gly . Phe . D-Met . Thr . OH HCl] (H-Y[dA]GF[dM]T-OH), 70 nM; under `C[C@@H](NC(=O)[C@@H](N)Cc1ccc(O)cc1)C(=O)NCC(=O)N[C@@H](Cc1ccccc1)C(=O)O` [(T), H . Tyr . D-Ala . Gly . Phe . OH HCl], 70 nM.

`CC(C)C[C@@H](NC(=O)[C@H](Cc1ccccc1)NC(=O)CNC(=O)[C@@H](C)NC(=O)[C@@H](N)Cc1ccc(O)cc1)C(=O)Oc1ccc(Cl)cc1` [(U), H . Tyr . D-Ala . Gly . Phe . D-Leu . p-chlorophenyl ester HCl]: it took 50 nM to reach half-maximal inhibition in experiment [1] (setting [3]) (IC50).

In turn, `CN[C@@H](Cc1ccc(O)cc1)C(=O)N[C@H](C)C(=O)NCC(=O)N[C@@H](Cc1ccccc1)C(=O)N[C@H](CC(C)C)C(=O)O` [(V), H . MeTyr . D-Ala . Gly . Phe . D-Leu . OH HCl] returned a half-maximal inhibitory concentration (IC50) in experiment [1] (setting [3]) of 30 nM.

In turn, `COC(=O)[C@@H](CC(C)C)NC(=O)[C@H](Cc1ccccc1)NC(=O)CNC(=O)CNC(=O)[C@@H](N)Cc1ccc(O)cc1` [(W), H . Tyr . Gly . Gly . Phe . D-Leu . OMe HCl] yielded a half-inhibitory concentration (IC50) in experiment [1] (setting [3]) of 60 nM. Still for that read-out and setting: with `CN[C@@H](Cc1ccc(O)cc1)C(=O)N[C@H](C)C(=O)NCC(=O)N[C@@H](Cc1ccccc1)C(=O)N[C@H](CC(C)C)C(N)=O` [(X), H . MeTyr . D-Ala . Gly . Phe . D-Leu . NH2 HCl] the figure was 20 nM; with `COC(=O)[C@@H](CCSC)NC(=O)[C@H](Cc1ccccc1)NC(=O)CNC(=O)CNC(=O)[C@@H](N)Cc1ccc(O)cc1` [(Y), H . Tyr . Gly . Gly . Phe . D-Met . OMe HCl], 60 nM; with `CSCC[C@@H](NC(=O)[C@H](Cc1ccccc1)NC(=O)CNC(=O)CNC(=O)[C@@H](N)Cc1ccc(O)cc1)C(=O)O` [(Z), H . Tyr . Gly . Gly . Phe . D-Met . OH HCl], 10 nM. In the case of `CC(C)C[C@H](NC(=O)[C@H](Cc1ccccc1)NC(=O)CNC(=O)[C@@H](C)NC(=O)[C@@H](N)Cc1ccc(O)cc1)C(=O)O` [Compound (A), H . Tyr . D-Ala . Gly . Phe . Leu . OH HCl], half-maximal inhibition in experiment [1] (setting [4]) (IC50) required […]. Regarding `CC(C)C[C@H](NC(=O)[C@H](Cc1ccccc1)NC(=O)CNC(=O)[C@@H](C)NC(=O)[C@@H](N)Cc1ccc(O)c([125I])c1)C(=O)O` [material of the first peak, H.Tyr(3-^125 I).D-Ala.Gly.Phe.Leu.OH], in experiment [2], the “specific binding affinity (for the opiate receptor)” value was “greater specific binding affinity”. In experiment [1] (setting [3]), “YGGFV [(M), H . Tyr . Gly . Gly . Phe . Val . OH HCl]” registered a half-maximal inhibitory concentration (IC50) of 80 nM.
